Assay results as given in patent US20120148510A1, “Compositions and Methods for Improving the Appearance of Facial Pores” (priority 2010, published 2012).
“And” between values parts separate entries of the source, which are not always exact repeats. Equal entries are not always repeated.

Legend:
[1] = system: HAS-2 gene (Hyaluronic Acid Synthase-2 gene); experiment: Hyaluronic Acid (HA) Synthase expression, keratinocyte culture, Affymetrix GeneChip microarray; type: cell-based; settings: 10 micro molar hexyldecanol; human telomerized keratinocytes; 6 hours exposure; six GeneChips; p-value=0.0366
Procedure: B. Hyaluronic Acid (HA) Synthase Expression
Individual experiments (referred to as batches) are generally comprised of 60 Affymetrix GeneChips® (referred to as “instances”) containing 6 vehicle control samples, 2 positive control samples and 52 individual test material samples. Duplication of test materials is performed across batches. In vitro testing is performed in 6-well plates to provide sufficient RNA for GeneChip® analysis (2-4 ug total RNA yield/well). Human telomerized keratinocytes are grown in EpiLife® media with 1× Human Keratinocyte Growth Supplement (Invitrogen) on collagen I coated cell culture flasks and plates (Becton Dickinson). Cells are seeded into 6-well plates at 20,000 cells/cm2 24 hours before chemical exposure. At t=−24 hours cells are trypsinized from T-75 flasks and plated into 6-well plates in basal growth medium. At t=0 media is removed and replaced with the appropriate dosing solution as per the experimental design. Dosing solutions are prepared the previous day in sterile 4 ml Falcon snap cap tubes. After 6 hours of chemical exposure cells are viewed and imaged. […]
2. Transcriptional Screening—RNA Analyzed with Gene Chips […]
Data quality was determined using a variety of statistical measures, including t-tests, scatter biplots, and principal components analysis, depending upon the source and character of the data. […]

facial pores = experiment: 9 week in vivo split face study, Pore Area Fraction by image analysis; design: species or system human; settings: vehicle + 5% Hexyldecanol, twice daily topical on face, 8 weeks, upper cheek area, FIG. 1
Procedure: A 9 week in vivo study was conducted using a round robin, vehicle controlled, split face design including a 1 week normalization period with 330 subjects.
Treatment Regimen—The regimen begins with a one week washout period. Each morning the subject is to wash their face with a suitable cleanser (e.g., Olay Natural Science Deep Purify Cleanser, available from The Procter & Gamble Company, Cincinnati, Ohio), gently dry with a towel, apply a stock moisturizer (e.g., Vehicle as described in Table 2 with 3% glycerine, no panthenol, and 0.3% disodium EDTA) to the appropriate side of the face, wait 5 minutes, and then apply a UV blocking lotion (e.g., Olay Complete All Day Moisturizing Lotion SPF 15, available from The Procter & Gamble Company, Cincinnati, Ohio). […]
Images of the facial treatment sites are captured at baseline (week 0), and after 4 and 8 weeks of treatment and analyzed for changes to facial pores. […]
The region of interest (ROI), in this case the upper cheek area, was marked manually based on 12 predefined facial landmarks around the cheek—for example, corners of the eye, bridge of the nose, corners of the mouth. The degree of facial pores in the ROI were quantified objectively using image analysis algorithms based on an Optimus software platform. […]

IL-1 beta = experiment: IL-1 inhibition assay (ICAM-1 promoter/luciferase reporter in ECV304 cells); type: cell-based, Human; settings: 5% concentration of hexyldecanol diluted to 0.05%; four replicates; 10 U/ml IL-1 beta, 4 hours
Procedure: A. IL-1 Inhibition Assay Protocol
One vial of Human ECV304 cells stably transfected with human ICAM-1 promoter/luciferase reporter construct (pGL3 basic plasmid) and CMV-βgal/RSV-neo plasmid DNA (clone E1.3-22) is placed in a 75 cm flask with 15 ml of complete maintenance media defined as follows: M199 (Gibco, cat #11150-059, 1× liquid, 500 ml containing Earle's salts, Na bicarbonate, and L-glutamine), 10% FBS (certified, heat-inactivated from Gibco, cat #10082-147), 10 ug/ml gentamicin (Gibco, cat #15710-015—10 mg/ml soln (1000×), and 250 μg/ml geneticin antibiotic (active G418 from Gibco, cat 10131-035-50 mg/ml soln).
When cells are 85-90% confluent remove media. Dilute (10×) trypsin-EDTA (Gibco cat #15400-039) to (1×) with HBSS and add 3 ml of (1×) trypsin-EDTA to flask and rinse. Remove trypsin and add a fresh 3 ml/flask and incubate 3-4 min. Strike end of flask to detach cells, and then add 6 ml of complete maintenance medium thoroughly washing the flask and place liquid in a conical tube. Then rinse each flask with an additional 3 ml of maintenance media. Spin tube at 200×g (approx 900 rpm for centrifuge in 3N066B) for 7 minutes. Aspirate supernatant and resuspend cells in 10 ml of maintenance media. Place 10 ul of cell suspension into a hemocytometer and count cells in 5 squares. Use following equation—total# of cells counted ×dilution×104/# of squares counted=cells/ml. […]

## CCCCCCCCC(CO)CCCCCC (stereo not drawn) [Hexyldecanol, 2-hexyldecan-1-ol]
[1]
  HAS-2 gene transcriptional expression level, average fold change: 1.336 fold change
Facial pores
  reduction of Pore Area Fraction versus vehicle control: significantly (p<=0.10) reducing Pore Area Fraction better than the control
IL-1 beta
  reduction of IL-1 stimulatory activity: 24% and 18% (2×) and 21%
